Patent US10398720B2, “Compound of the avermectin family or of the milbemycin family for the treatment and/or prevention of atopic dermatitis” (GALDERMA SA, priority 2013, dated 2019)

System: Der f-induced AD mouse model
Test: Dermatophagoides farinae (Der f)-induced atopic dermatitis (AD)-like mouse model, topical route
Format: in vivo, Balb/c mice
Conditions: for cytokine concentration / production (IL-10, IL-13, IL-17, IL-4, IL-5, IFNg; FIG. 5): 0.1% ivermectin; for inflammatory response induced by Der f application: topical daily day 19 to day 36, solutions in acetone, ivermectin 0.003-0.1%; for ear edema (ear thickness, FIG. 1): topical daily day 19 to day 36
Procedure: 1.1. […] Der f has been purchased from Greer Laboratories and a Der f solution has been prepared at 12.5 mg/ml in 70% DMSO in MilliQ water. […] Balb/c mice strain has been used for the study. These animals have been obtained from controlled breeding and were specific pathogen free. The animals have been provided by Janvier SAS, France. AD-like lesions have been induced once a week by topical application of 20 μl of Der f solution on the right ear for 5 weeks at […], day 29 and day 36. Mice have been daily treated from day 19 to day 36 with the different solutions administrated by the topical route. Measurement of ear thickness have been monitored before and 24 hours after each allergen application. After day 19, ears have been daily measured before compound application. Blood samples have been collected into appropriate vials under isoflurane anaesthesia for further analysis (IgE). Mice have been then immediately euthanized. After mouse euthanasia, the right ear has been collected and has been washed in ethanol 70% and has been rinsed in PBS. Three skin biopsies have then been collected for cytokines profiles, eosinophil peroxidase (EPO) quantification and histological slides in order to quantify the mastocytes and in order to measure the epidermis thickness.

[1] = histological slides, 0.05% triamcinolone acetonide, ivermectin 0.003, 0.01, 0.03 and 0.1%
[2] = right ear skin biopsy, 0.05% triamcinolone acetonide, 0.1% tacrolimus
[3] = 0.05% triamcinolone acetonide, 0.1% tacrolimus
[4] = 0.05% triamcinolone acetonide, 0.1% tacrolimus, ivermectin 0.003, 0.01, 0.03 and 0.1%

| Compound | IgE secretion (total seric IgE, FIG. 4) (blood sample, 0.05% triamcinolone acetonide, ivermectin 0.003, 0.01, 0.03 and 0.1%) | epidermal thickness (FIG. 2) [1] | mastocyte count (within the dermis, FIG. 6) [1] | dose response of the anti-inflammatory activity (ivermectin 0.003 to 0.1% topical) | anti-inflammatory response, higher concentrations (ivermectin 0.01, 0.03 and 0.1% topical, compared with 0.003%) | inflammatory response, compared with positive controls (ivermectin at 0.003% topical vs triamcinolone acetonide at 0.05% and tacrolimus at 0.1%) | EPO (eosinophil peroxidase, FIG. 3) (right ear skin biopsy, 0.05% triamcinolone acetonide, ivermectin 0.003, 0.01 and 0.03%) | cytokine concentration / production (IL-10, IL-13, IL-17, IL-4, IL-5, IFNg; FIG. 5) [2] | inflammatory response induced by Der f application [3] | ear edema (ear thickness, FIG. 1) [4] | interleukin IL-17 production (FIG. 5) (right ear skin biopsy, 0.1% tacrolimus) |
| --- | --- | --- | --- | --- | --- | --- | --- | --- | --- | --- | --- |
| Ivermectin | significantly decreases | lessens | lessens | inverse dose response | less potent than the weakest concentration (0.003%) | to the same extent as triamcinolone acetonide at 0.05% and as tacrolimus at 0.1% | significantly decreases | significantly decreases | able to reduce | significantly decreases |  |
| C=CC[C@@H]1/C=C(\C)C[C@H](C)C[C@H](OC)[C@H]2O[C@@](O)(C(=O)C(=O)N3CCCC[C@H]3C(=O)O[C@H](/C(C)=C/[C@@H]3CC[C@@H](O)[C@H](OC)C3)[C@H](C)[C@@H](O)CC1=O)[C@H](C)C[C@@H]2OC [tacrolimus] |  |  |  |  |  |  |  | totally reduces | completely inhibit | totally reduces | totally reduces |
